Test systems include SK-MEL-28 melanoma; LOX IMVI melanoma; MDA-MB-231 breast; ACHN renal; HCT-15 colon; DU-145 prostate; UACC-62 melanoma; SK-MEL-5 melanoma.
Holding throughout (experiment): growth of human tumour cells (NCI), 48 h

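Each compound was tested at five concentrations against cells in 96-well plates for 48 hours. GI50 is the concentration that inhibits growth by half. Definition used: TGI = concentration required for complete inhibition of growth.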

Take `Cc1cccc(NC(=O)Cn2cnc3sc(C(=O)OC(C)C)c(C)c3c2=O)c1`: the GI50 with SK-MEL-28 melanoma is 16.6 µM; in the assay on LOX IMVI melanoma, 11.2 µM; in the assay on MDA-MB-231 breast, 11.2 µM; in the assay with ACHN renal it was 9.73 µM; with HCT-15 colon, 32.6 µM; with DU-145 prostate it was 9.33 µM. The GI50 was 8.78 µM in the assay with UACC-62 melanoma and 20.7 µM in the assay with SK-MEL-5 melanoma. Further, the TGI in the assay on SK-MEL-28 melanoma is over 50 µM; in the assay with LOX IMVI melanoma, 35.9 µM; with MDA-MB-231 breast, 39.5 µM; with ACHN renal, 26.6 µM; in the assay on HCT-15 colon it was over 50 µM; with DU-145 prostate, 36.6 µM. The TGI was 24.3 µM in the assay on UACC-62 melanoma and over 50 µM in the assay with SK-MEL-5 melanoma.

`NC1(C(=O)OCc2ccccc2)CCCC1`: the TGI in the assay on SK-MEL-28 melanoma was 48.7 µM; in the assay with LOX IMVI melanoma, 37.7 µM; in the assay on MDA-MB-231 breast, 36.4 µM; in the assay with ACHN renal it was 34.1 µM; in the assay on HCT-15 colon, 60.8 µM; in the assay with DU-145 prostate, 37.5 µM. Also, the TGI in the assay on UACC-62 melanoma was 37 µM; in the assay with SK-MEL-5 melanoma, 37.4 µM.

Consider `O=[N+]([O-])C(/C=C(\Cl)n1nnc2ccccc21)=C(/Cl)n1nnc2ccccc21`, for which the TGI with SK-MEL-28 melanoma, in the assay on LOX IMVI melanoma, in the assay with MDA-MB-231 breast, in the assay with ACHN renal, in the assay with HCT-15 colon and in the assay on DU-145 prostate was over 100 µM throughout. Further, the TGI in the assay on UACC-62 melanoma and with SK-MEL-5 melanoma was over 100 µM each time.

For `Cc1ccc(S(=O)(=O)Nc2ccccc2C(=O)c2ccc(C)c(C)c2)cc1`, the TGI in the assay on SK-MEL-28 melanoma, with LOX IMVI melanoma, in the assay on MDA-MB-231 breast, in the assay with ACHN renal, in the assay on HCT-15 colon and with DU-145 prostate was over 100 µM each time. The TGI in the assay with UACC-62 melanoma and in the assay on SK-MEL-5 melanoma was over 100 µM in each case.

Turning to `CCCCCCCC(=O)SCC/C=C/[C@@H]1CC(=O)NCc2cc(ccn2)C2=N[C@@](C)(CS2)C(=O)N[C@@H](C(C)C)C(=O)O1`, the GI50 is 0.0125 µM in the assay on SK-MEL-28 melanoma; 0.0172 µM with LOX IMVI melanoma; 0.05 µM with MDA-MB-231 breast; 0.0433 µM in the assay with ACHN renal; 0.141 µM with HCT-15 colon; 0.0138 µM in the assay with DU-145 prostate. Also, the GI50 was 0.0062 µM in the assay with UACC-62 melanoma and 0.0117 µM in the assay on SK-MEL-5 melanoma. The TGI is 1.02 µM in the assay with SK-MEL-28 melanoma; 0.0666 µM in the assay with LOX IMVI melanoma; over 33.3 µM in the assay with MDA-MB-231 breast; 0.434 µM with ACHN renal; over 33.3 µM in the assay with HCT-15 colon; over 33.3 µM in the assay on DU-145 prostate. Also, the TGI with UACC-62 melanoma is 0.0507 µM; with SK-MEL-5 melanoma it was 0.051 µM.

Turning to `O=C(CCc1nnc2sc(-c3ccc(Cl)cc3Cl)nn12)c1nc2ncccc2[nH]1`, the GI50 is 2.44 µM in the assay on SK-MEL-28 melanoma; 1.69 µM in the assay with LOX IMVI melanoma; 1.74 µM in the assay with MDA-MB-231 breast; 1.54 µM in the assay on ACHN renal; 1.64 µM with HCT-15 colon; 1.92 µM in the assay with DU-145 prostate. Besides, the GI50 was 1.65 µM in the assay on UACC-62 melanoma and 1.7 µM in the assay on SK-MEL-5 melanoma. Besides, the TGI in the assay on SK-MEL-28 melanoma is 5.65 µM; with LOX IMVI melanoma it was 3.08 µM; in the assay with MDA-MB-231 breast, 4.36 µM; in the assay with ACHN renal, 2.91 µM; with HCT-15 colon it was 4.61 µM; in the assay on DU-145 prostate, 3.63 µM. The TGI in the assay with UACC-62 melanoma came out at 3.31 µM; with SK-MEL-5 melanoma it was 3.09 µM.

On to `O=c1c2sccc2n(CC2COc3ccccc3O2)c(=O)n1O` (stereo not drawn), for which the GI50 in the assay with SK-MEL-28 melanoma is 14.5 µM; in the assay on LOX IMVI melanoma, 6.45 µM; in the assay on MDA-MB-231 breast, 39 µM; with ACHN renal it was 20.5 µM; with HCT-15 colon it was 4.53 µM; in the assay on DU-145 prostate, 19.8 µM. In addition, the GI50 in the assay with UACC-62 melanoma is 14.6 µM; in the assay with SK-MEL-5 melanoma, 17.1 µM. The TGI with SK-MEL-28 melanoma, with LOX IMVI melanoma, in the assay on MDA-MB-231 breast, in the assay with ACHN renal, in the assay on HCT-15 colon and with DU-145 prostate was over 100 µM throughout. The TGI in the assay on UACC-62 melanoma turned out to be 46.4 µM; with SK-MEL-5 melanoma, 61.1 µM.

As for `COc1cc(C2c3cc4c(cc3OC(C)(O)C2C)OCO4)cc(OC)c1OC` (stereo not drawn), the TGI in the assay on LOX IMVI melanoma is over 100 µM; in the assay on MDA-MB-231 breast, 24 µM; with ACHN renal, over 100 µM; with HCT-15 colon, over 100 µM; in the assay on DU-145 prostate it was over 100 µM; in the assay on SK-MEL-5 melanoma, 2.36 µM.

For the molecule `CCN1CCN(c2nc(C)cc(N(CCNc3ccnc4cc(Cl)ccc34)Cc3ccc4c(c3)OCO4)n2)CC1`, the GI50 in the assay on SK-MEL-28 melanoma is 1.79 µM; with LOX IMVI melanoma, 1.77 µM; in the assay with MDA-MB-231 breast, 1.38 µM; in the assay on ACHN renal, 2.26 µM; with HCT-15 colon, 1.46 µM; in the assay on UACC-62 melanoma, 1.85 µM. Further, the GI50 in the assay on SK-MEL-5 melanoma is 1.74 µM. Moreover, the TGI worked out at 3.42 µM in the assay on SK-MEL-28 melanoma; 3.35 µM in the assay on LOX IMVI melanoma; 3.19 µM with MDA-MB-231 breast; 5.26 µM in the assay on ACHN renal; 3.26 µM in the assay on HCT-15 colon; 3.38 µM in the assay on UACC-62 melanoma. In addition, the TGI in the assay with SK-MEL-5 melanoma was found to be 3.17 µM.

Consider `Cc1cc(-c2ccc3nc(C4CCOCC4)n(CCOC(F)(F)F)c3c2)cn(C)c1=O`, for which the TGI in the assay on LOX IMVI melanoma came out at 1.06 µM; with HCT-15 colon, 4.23 µM; in the assay with UACC-62 melanoma it was 2.06 µM; with SK-MEL-5 melanoma, 1.27 µM.

In the case of `COc1cc2c3c(n(C)c(=O)c2cc1OC)-c1cc2c(cc1/C3=C\CCN)OCO2`, the GI50 with SK-MEL-28 melanoma was 8.76 µM; in the assay on LOX IMVI melanoma, under 0.01 µM; with MDA-MB-231 breast, 1.36 µM; with ACHN renal, 0.0476 µM; with HCT-15 colon, 0.679 µM; in the assay with DU-145 prostate, 0.362 µM. For the same molecule, the GI50 in the assay on UACC-62 melanoma is 0.185 µM. Besides, the TGI in the assay with SK-MEL-28 melanoma amounted to 33.5 µM; with LOX IMVI melanoma, 0.194 µM; with MDA-MB-231 breast it was 4.78 µM; in the assay on ACHN renal, 0.585 µM; with HCT-15 colon, 12.8 µM; in the assay with DU-145 prostate, 11.4 µM. Besides, the TGI in the assay with UACC-62 melanoma is 4.41 µM.

As for `COc1cc(/C=C2\CN(S(=O)(=O)c3ccccc3)C/C(=C\c3cc(CN4CCCC4)c(O)c(OC)c3)C2=O)cc(CN2CCCC2)c1O`, the GI50 in the assay on SK-MEL-28 melanoma is 1.88 µM; with LOX IMVI melanoma it was 0.332 µM; in the assay with ACHN renal, 1.99 µM; in the assay on HCT-15 colon, 2.3 µM; in the assay with DU-145 prostate it was 0.542 µM; with UACC-62 melanoma, 1.61 µM. In addition, the TGI in the assay with SK-MEL-28 melanoma was determined as 3.56 µM; in the assay with LOX IMVI melanoma, 1.14 µM; in the assay with ACHN renal it was 4.94 µM; with HCT-15 colon, 7.6 µM; in the assay with DU-145 prostate, 1.91 µM; in the assay with UACC-62 melanoma, 3.24 µM.
